The numbers were not newly measured in patent US10021900B2, “Carbohydrate composition and food and beverage producing gradual rise in blood glucose levels” (MATSUTANI CHEMICAL INDUSTRY CO., LTD., priority 2011, dated 2018), which cites them from elsewhere.

For this series the following is noted: 10% by mass aqueous solution.

Turning to `OC[C@H]1O[C@H](OC[C@H]2OC(O)(CO)[C@@H](O)[C@@H]2O)[C@H](O)[C@@H](O)[C@@H]1O` (stereo partly shown) [isomaltulose], the osmotic pressure result is listed as “about 340 mOSMOL/kg”.
